Assay in all cases: NCI tumour cell line growth inhibition, 48 h
The test system of assay [1] is CAKI-1 renal.
In assay [2] the test system is HT29 colon.
The subject of assay [3] is M14 melanoma.
Assay [4] relates to NCI-H23 lung.
Assay [5] concerns NCI-H460 lung.
The test system of assay [6] is OVCAR-5 ovarian.
For assay [7], the system named is SK-OV-3 ovarian.
The test system of assay [8] is UACC-257 melanoma.
Assay [9] relates to A549 NSCLC.
In assay [10] the test system is CCRF-CEM leukemia.

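A five-concentration, 48-hour dose response in 96-well plates underlies each endpoint, interpolated linearly between surrounding concentrations. Abbreviation: GI50, concentration required for 50% inhibition of growth. TGI: total growth inhibition.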

For the compound `CCCCCCCC/C=C/CCCCCCCC1=NC(C)(C)CN1C(C)C`, the GI50 in [1] was 1.16 µM; in assay [2], 0.576 µM; in assay [3], 1.53 µM; in assay [4] it was 1.51 µM; in assay [5], 1.7 µM; in assay [6], 1.54 µM. In addition, the GI50 is 1.32 µM in [7] and 1.86 µM in [8]. Further, the TGI in assay [1] turned out to be 2.38 µM; in assay [2], 1.86 µM; in assay [3] it was 2.86 µM; in assay [4], 2.83 µM; in assay [5], 3.07 µM; in assay [6], 2.88 µM. Also, the TGI in [7] stood at 2.59 µM; in assay [8] it was 3.4 µM.

For `COc1ccc(-c2cnc3ccnn3c2-c2cc(OC)c(OC)c(OC)c2)cc1`, the GI50 in assay [9] is 3.85 µM; in [10], 3.52 µM; in assay [2], 3.01 µM; in [3] it was 2.65 µM; in [4], 8.29 µM; in assay [5] it was 3.39 µM. For the same compound, the GI50 in [6] is 4.42 µM; in assay [7], 4.63 µM; in assay [8] it was 91.6 µM. The TGI in [9] was more than 100 µM; in assay [10], more than 100 µM; in assay [2], more than 100 µM; in [3], 35.5 µM; in assay [4], more than 100 µM; in [5], more than 100 µM. Also, the TGI in [6], in assay [7] and in assay [8] was more than 100 µM throughout.

Turning to `CCOC(=O)c1c(-c2ccccc2)[n+](=O)c2ccc(Cl)cc2n1[O-]`, the GI50 in assay [9] is 8.46 µM; in [1] it was 3.82 µM; in assay [2], 11 µM; in assay [3], 10.1 µM; in [4], 11.2 µM; in [5], 5.36 µM. In addition, the GI50 was 7.12 µM in [6], 15.5 µM in assay [7] and 4.06 µM in assay [8]. Besides, the TGI was 20.6 µM in assay [9]; 13.2 µM in assay [1]; 23 µM in [2]; 21.7 µM in [3]; 23.4 µM in assay [4]; 17.9 µM in [5]. In addition, the figures for the TGI in assay [6], in assay [7] and in [8] were 20.2 µM, more than 100 µM and 16.6 µM, respectively.

With `Cn1cccc1-c1cc(-c2cccs2)[nH]c(=O)c1C#N`, the GI50 was more than 100 µM in assay [9]; more than 100 µM in [1]; more than 100 µM in assay [10]; more than 100 µM in assay [2]; more than 100 µM in [4]; 69.6 µM in assay [5]. Moreover, the GI50 in assay [6], in assay [7] and in assay [8] was more than 100 µM each time. Also, the TGI in [9], in [1], in [10], in [2], in assay [4] and in assay [5] was more than 100 µM in each case. The TGI in assay [6], in [7] and in assay [8] was more than 100 µM throughout.

Take `COc1cc(/C=C2\[C@H]3c4c(c(OC)c(C)c(OC)c4OC)C[C@@H](C(=O)N2Cc2ccccc2)N3C(=O)OC(C)C)c(OC)c(C)c1OC`: the TGI in assay [9], in assay [10], in assay [2], in assay [3], in [4] and in assay [5] was more than 100 µM each time. The TGI in assay [6], in assay [7] and in assay [8] was more than 100 µM in each case.

Take `CN1CCC[C@@H]1CCO[C@](C)(c1ccccc1)c1ccc(Cl)cc1`: the GI50 is 7.92 µM in assay [9]; 7.12 µM in assay [1]; 3.06 µM in assay [2]; 1.82 µM in assay [3]; 10.5 µM in [4]; 4.94 µM in assay [5]. In addition, the GI50 in assay [6] was 5.34 µM; in assay [7], 4.46 µM; in assay [8], 1.9 µM. The TGI in assay [9] was 21.7 µM; in assay [1] it was 21.5 µM; in [2], 11.3 µM; in [3] it was 3.45 µM; in [4] it was 24.3 µM; in assay [5], 17.1 µM. Also, the TGI worked out at 18.6 µM in assay [6], 17.8 µM in assay [7] and 4.17 µM in assay [8].

For `Cc1ccc(S(=O)(=O)/N=c2\ssc(Nc3ccccc3)c2Cl)cc1`, the GI50 in assay [9] was 14.6 µM; in assay [1], 7.6 µM; in assay [2], 17.2 µM; in [3], 22.8 µM; in assay [4], 11 µM; in assay [5] it was 9.02 µM. Besides, the GI50 is 21.1 µM in [6], 15.3 µM in assay [7] and 9.86 µM in [8]. Also, the TGI was more than 50 µM in assay [9]; 21.1 µM in assay [1]; more than 50 µM in [2]; more than 50 µM in assay [3]; 27.1 µM in [4]; 19.6 µM in assay [5]. For the same compound, the TGI was more than 50 µM in [6], more than 50 µM in assay [7] and 30.3 µM in assay [8].

Regarding `CC#CS(=O)(=O)c1ccccc1`, the TGI amounted to 31.4 µM in assay [9]; 2.36 µM in [1]; 14.4 µM in assay [2]; 21.4 µM in [3]; 18.8 µM in [4]; 38 µM in assay [5]. Besides, the values for the TGI in assay [6], in assay [7] and in assay [8] were 18.2 µM, 40.5 µM and 12.1 µM, respectively.

As to `Nc1ncnc2c1nc(-c1ccccc1)n2C1OC(CO)C(O)C1O` (stereo not drawn), the TGI in assay [9], in [1], in assay [2], in [3], in assay [4] and in [5] was more than 100 µM each time. In addition, the TGI in [6], in [7] and in [8] was more than 100 µM in each case.

Take `CCCc1cc2cc(-n3nc(C)c4c3CC(C)(C)CC4=O)cc(NC3CCC(O)CC3)c2c(=O)[nH]1` (stereo not drawn): the GI50 in assay [9] was 0.215 µM; in assay [10] it was 0.278 µM; in [2], 0.0308 µM; in assay [3] it was 0.0944 µM; in [4], 0.0584 µM; in assay [5] it was 0.0744 µM. Moreover, the GI50 in assay [6] is 0.626 µM; in assay [7], 0.0892 µM; in [8], 0.372 µM. Further, the TGI in assay [9], in assay [10], in [2], in assay [3], in [4] and in assay [5] was more than 100 µM each time. Moreover, the TGI in assay [6] was more than 100 µM; in assay [7], more than 46.6 µM; in assay [8] it was more than 100 µM.

Take `COc1ccc2c(c1)CCc1c(-c3noc4c3CCc3cc(OC)ccc3-4)noc1-2`: the TGI in [9], in assay [1], in [2], in [3], in assay [4] and in [5] was more than 100 µM each time. Besides, the TGI in [6], in [7] and in [8] was more than 100 µM in each case.

As for `CC(=O)NC(CCCCNC(=O)N(CCCl)N=O)C(=O)NCc1ccccc1` (stereo not drawn), the TGI in [9], in assay [1], in assay [10], in assay [2], in assay [3] and in assay [4] was more than 100 µM in each case. Besides, the TGI in [5] and in assay [8] was more than 100 µM throughout.

As to `CCC1=C(C)/C(=C/c2[nH]c(CBr)c(CC)c2C)N=C1CBr`, the TGI came out at 36.7 µM in [9]; 25.8 µM in assay [1]; 9.55 µM in assay [10]; 26.7 µM in assay [2]; 33.1 µM in assay [3]; 46.7 µM in assay [4]. For the same compound, the TGI in assay [5] is 38.9 µM; in assay [7], 45 µM.

For `C#CCN=C(N/N=C/c1ccc([N+](=O)[O-])o1)NS(=O)(=O)c1cc(C)c(Cl)cc1SCC(N)=O`, the GI50 in assay [9] is 18 µM; in [1] it was 25.7 µM; in [10] it was 22.2 µM; in assay [2], 26.3 µM; in assay [4], 18.5 µM; in assay [5], 12.5 µM. Also, the figures for the GI50 in [6], in [7] and in assay [8] were 19.9 µM, 49.2 µM and 13.9 µM, respectively. The TGI was 35.3 µM in [9]; 45.1 µM in assay [1]; 57.4 µM in assay [10]; more than 100 µM in assay [2]; 33.1 µM in [4]; 29.9 µM in assay [5]. Besides, the TGI in assay [6] was 34.5 µM; in [7], more than 100 µM; in assay [8] it was 27 µM.

Turning to `CN=C1Nc2ccc(Cl)cc2C(c2ccccc2)=NN1C`, the TGI in [9], in [1], in assay [10], in assay [2], in assay [3] and in [4] was more than 100 µM each time. For the same compound, the TGI in assay [5], in [6] and in [8] was more than 100 µM throughout.

Take `COC(=O)C1=CN=C(C(=O)OC)NN1`: the TGI in assay [9], in assay [1], in [10], in assay [2], in assay [3] and in assay [4] was more than 100 µM throughout. The TGI in assay [5], in assay [7] and in assay [8] was more than 100 µM in each case.

In the case of `COc1cc2nc(Sc3c([N+](=O)[O-])ncn3C)[nH]c2cc1OC`, the TGI in assay [9] was more than 100 µM; in assay [1], 37.2 µM; in assay [2] it was more than 100 µM; in assay [3], more than 100 µM; in assay [4] it was more than 100 µM; in assay [5], more than 100 µM. For the same compound, the TGI is more than 100 µM in [6], more than 100 µM in assay [7] and 78.3 µM in assay [8].

Turning to `NC(CNO)C(=O)O` (stereo not drawn), the TGI in [9], in assay [1], in assay [2], in assay [3], in assay [4] and in [5] was more than 100 µM each time. Moreover, the TGI in [6], in assay [7] and in [8] was more than 100 µM throughout.

Consider `O=C(O)c1ccc(O)c(N=Nc2cc(S(=O)(=O)O)c3ccccc3c2O)c1`, for which the TGI in assay [9], in assay [1], in [2], in assay [4], in [5] and in assay [6] was more than 100 µM in each case. Besides, the TGI in [7] and in assay [8] was more than 10 µM throughout.

In the case of `O=C1C(=O)N(C(=O)c2ccc(Cl)c(Cl)c2)c2ccc(Cl)cc21`, the TGI in assay [9], in assay [10], in [2], in assay [3], in assay [4] and in assay [5] was more than 100 µM in each case. Moreover, the TGI in [6] and in assay [7] was more than 100 µM each time.

With `Cc1oc2c(C)c(O)c3c(c2c1C1(C)OCCO1)C(=O)C=C(Cl)C3=O`, the TGI in [9], in assay [1], in [10], in assay [2], in [3] and in [4] was more than 100 µM in each case. Also, the TGI in assay [5], in assay [6] and in assay [8] was more than 100 µM throughout.

As to `COc1ccc(/C=C2\CN(Cc3cn(CCCNc4ccnc5cc(Cl)ccc45)nn3)C/C(=C\c3ccc(OC)c(OC)c3)C2=O)cc1OC`, the GI50 is 1.71 µM in assay [9]; 0.571 µM in assay [10]; 0.663 µM in assay [2]; 2.59 µM in [3]; 2.36 µM in assay [4]; 0.806 µM in [5]. Further, the GI50 is 2.68 µM in assay [6], 2.45 µM in assay [7] and 2.24 µM in assay [8]. The TGI is 4.11 µM in assay [9]; 8.65 µM in assay [10]; 2.38 µM in [2]; 9.68 µM in assay [3]; 7.26 µM in assay [4]; 2.12 µM in assay [5]. Also, the values for the TGI in assay [6], in assay [7] and in assay [8] were 6.42 µM, 11.1 µM and 12 µM, respectively.

Values taken from PubChem BioAssay (NCI).
